According to ChEMBL document CHEMBL1201862, “PubChem BioAssay data set” (2004):
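Five compound concentrations were applied to cells in 96-well plates for 48 hours; endpoints were derived by simple linear interpolation of the resulting dose-response curve. GI50 marks 50% less growth.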 The source made the active and inactive calls. Cut-off read from the data, not from the text of the source: active = GI50 up to about 1.1 µM and inactive = higher.

Key:
Experiment in all cases: NCI tumour cell line growth inhibition, 48 h
HCT-15 = test system: HCT-15
HOP-92 = test system: HOP-92
NCI-H226 = test system: NCI-H226
SF-268 = test system: SF-268
SN12C = test system: SN12C
SW-620 = test system: SW-620
HL-60 = test system: HL-60
SR = test system: SR
M14 = test system: M14
SF-295 = test system: SF-295
NCI/ADR-RES = test system: NCI/ADR-RES
RPMI-8226 = test system: RPMI-8226
MDA-N = test system: MDA-N
Hs-578T = test system: Hs-578T
UACC-257 = test system: UACC-257
LOX IMVI = test system: LOX IMVI
T47D = test system: T47D
SK-MEL-5 = test system: SK-MEL-5
HCC 2998 = test system: HCC 2998
SK-MEL-2 = test system: SK-MEL-2

Structure (SMILES)	GI50 (HCT-15)	GI50 (HOP-92)	GI50 (NCI-H226)	GI50 (SF-268)	GI50 (SN12C)	GI50 (SW-620)	GI50 (HL-60)	GI50 (SR)	GI50 (M14)	GI50 (SF-295)	GI50 (NCI/ADR-RES)	GI50 (RPMI-8226)	GI50 (MDA-N)	GI50 (Hs-578T)	GI50 (UACC-257)	GI50 (LOX IMVI)	GI50 (T47D)	GI50 (SK-MEL-5)	GI50 (HCC 2998)	GI50 (SK-MEL-2)
COc1ccc(-c2cc(O)c3nc4ccccc4n3c2)cc1	> 100 µM	> 100 µM (inactive)	> 100 µM (inactive)	> 100 µM (inactive)	> 100 µM (inactive)	> 100 µM (inactive)	> 100 µM (inactive)	> 100 µM (inactive)	> 100 µM (inactive)	> 100 µM (inactive)	> 100 µM (inactive)	> 100 µM (inactive)	> 100 µM (inactive)	85.7 µM (inactive)	> 100 µM (inactive)	> 100 µM (inactive)				
CC[C@H]1C[C@@H](O)[C@@H]2[C@H](O)[C@H](O)CN2C1	> 100 µM	> 100 µM (inactive)	> 100 µM (inactive)	> 100 µM (inactive)	> 100 µM (inactive)	> 100 µM (inactive)	> 100 µM (inactive)		> 100 µM (inactive)	> 100 µM (inactive)	> 100 µM (inactive)	> 100 µM (inactive)	> 100 µM (inactive)	> 100 µM (inactive)	> 100 µM (inactive)	> 100 µM (inactive)	> 100 µM (inactive)	> 100 µM (inactive)	> 100 µM (inactive)	> 100 µM (inactive)
O=C1Nc2ccccc2/C1=C\c1c(-c2ccccc2)nc2n1CCS2	18.6 µM	39.3 µM (inactive)		26.5 µM (inactive)	22.1 µM (inactive)	29.3 µM (inactive)	18.2 µM (inactive)		30.3 µM (inactive)	17.3 µM (inactive)	23.1 µM (inactive)	22.6 µM (inactive)	13.1 µM (inactive)	23.4 µM (inactive)	19.5 µM (inactive)	18.3 µM (inactive)	18.7 µM (inactive)	16.5 µM (inactive)	16.4 µM (inactive)	13.3 µM (inactive)
Cc1ccc2cccc3c2c1CC1(C3=O)S(=O)(=O)OCCOS1(=O)=O	> 100 µM	> 100 µM (inactive)	> 100 µM (inactive)	> 100 µM (inactive)	> 100 µM (inactive)	> 100 µM (inactive)	> 100 µM (inactive)		> 100 µM (inactive)	> 100 µM (inactive)	> 100 µM (inactive)	> 100 µM (inactive)	> 100 µM (inactive)	> 100 µM (inactive)	> 100 µM (inactive)	> 100 µM (inactive)	> 100 µM (inactive)	> 100 µM (inactive)	> 100 µM (inactive)	> 100 µM (inactive)
CCN(CC)CCNc1n[n+]([O-])c2ccccc2[n+]1[O-]	3.92 µM		7.21 µM (inactive)	10.7 µM (inactive)	3.91 µM (inactive)	12 µM (inactive)	1.85 µM (inactive)		6.7 µM (inactive)	7.93 µM (inactive)	22.9 µM (inactive)	4.48 µM (inactive)	9.73 µM (inactive)	28.6 µM (inactive)		9.86 µM (inactive)	5.18 µM (inactive)	1.59 µM (inactive)	2.07 µM (inactive)	
NC1CC(=O)c2csc(Cl)c21 (centres undefined)	5.41 µM	4.46 µM (inactive)	37 µM (inactive)	10.1 µM (inactive)	5.42 µM (inactive)	2.05 µM (inactive)	2.72 µM (inactive)		8.99 µM (inactive)	17.1 µM (inactive)	27 µM (inactive)	0.234 µM (active)	8.63 µM (inactive)	35.5 µM (inactive)	14.9 µM (inactive)	4 µM (inactive)	3.98 µM (inactive)	18.5 µM (inactive)	17.6 µM (inactive)	12.9 µM (inactive)
O=C1N/C(=N/N=C/c2cccs2)N/C1=C\c1ccco1	> 100 µM	> 100 µM (inactive)	21.3 µM (inactive)	19.8 µM (inactive)	43.8 µM (inactive)	30.4 µM (inactive)	31.4 µM (inactive)		8.57 µM (inactive)	94.2 µM (inactive)	66.4 µM (inactive)	23.7 µM (inactive)	2.93 µM (inactive)	29.3 µM (inactive)	55.7 µM (inactive)	21.6 µM (inactive)	> 100 µM (inactive)	24.3 µM (inactive)		7.29 µM (inactive)
c1ccc2cc3c(NC4=NCCO4)cccc3cc2c1	> 100 µM	17.6 µM (inactive)	52.2 µM (inactive)	34.2 µM (inactive)	58.5 µM (inactive)	> 100 µM (inactive)	25.9 µM (inactive)	36 µM (inactive)	34.3 µM (inactive)	> 100 µM (inactive)	75.2 µM (inactive)	39 µM (inactive)	1.79 µM (inactive)	41.8 µM (inactive)	48.5 µM (inactive)	29.8 µM (inactive)		35 µM (inactive)		46.1 µM (inactive)
Nc1ncc2c(n1)-c1ccccc1OC2N1CCOCC1 (centres undefined)	> 100 µM	> 100 µM (inactive)	> 100 µM (inactive)	> 100 µM (inactive)	> 100 µM (inactive)	> 100 µM (inactive)	44.5 µM (inactive)	52.7 µM (inactive)	> 100 µM (inactive)	> 100 µM (inactive)	> 100 µM (inactive)	> 100 µM (inactive)	> 100 µM (inactive)	> 100 µM (inactive)	> 100 µM (inactive)	> 100 µM (inactive)		> 100 µM (inactive)		> 100 µM (inactive)
N#Cc1ccccc1NC(=O)/C(=N\NC(=O)c1ccncc1)C(c1cnc2ccc([N+](=O)[O-])cc2n1)[N+](=O)[O-] (centres undefined)	78.3 µM	86.9 µM (inactive)	> 100 µM (inactive)	> 100 µM (inactive)	> 100 µM (inactive)	> 100 µM (inactive)	> 100 µM (inactive)		67.6 µM (inactive)	> 100 µM (inactive)	> 100 µM (inactive)	49 µM (inactive)	> 100 µM (inactive)	> 100 µM (inactive)	> 100 µM (inactive)	84.5 µM (inactive)	> 100 µM (inactive)	63.7 µM (inactive)	> 100 µM (inactive)	> 100 µM (inactive)
CCOC(=O)/C(C(=O)Nc1cccc(C(F)(F)F)c1)=C(/N)N1CCCC1	> 100 µM		29.2 µM (inactive)	54.3 µM (inactive)	41.9 µM (inactive)	> 100 µM (inactive)	> 100 µM (inactive)		> 100 µM (inactive)	42.2 µM (inactive)	> 100 µM (inactive)	> 100 µM (inactive)	> 100 µM (inactive)	27.2 µM (inactive)	> 100 µM (inactive)	> 100 µM (inactive)	47.8 µM (inactive)		> 100 µM (inactive)	> 100 µM (inactive)
CCCCc1nc(C)oc1C(C)C	> 100 µM	> 100 µM (inactive)	40.7 µM (inactive)	> 100 µM (inactive)	> 100 µM (inactive)	> 100 µM (inactive)	> 100 µM (inactive)		> 100 µM (inactive)	> 100 µM (inactive)	> 100 µM (inactive)		> 100 µM (inactive)	> 100 µM (inactive)	> 100 µM (inactive)	> 100 µM (inactive)	> 100 µM (inactive)	> 100 µM (inactive)	> 100 µM (inactive)	
